Source: patent publication US11499981B2, “Methods of identifying modulators of SAMTOR-GATOR1 interaction and use of same to modulate mTORC1” (Whitehead Institute for Biomedical Research, priority 2017, dated 2022)

Legend:
mTORC1 = mTORC1 signaling in methionine-starved cells (immunoblotting of mTORC1 substrate phosphorylation); assay type: cell-based, human; conditions: for activation of mTORC1 after loss of MAT2A: MAT2A dox-off HEK-293T cells, 30 ng/mL doxycycline for 50 hours
Method: Cell volumes were determined by Coulter counter and used to calculate whole cell concentrations. […] HA-immunoprecipitates and cell lysates were analyzed by immunoblotting for the levels of the indicated proteins. […] Cell lysates were analyzed by immunoblotting for the phosphorylation states and the levels of the indicated proteins. […] Wild-type or SAMTOR-deficient HEK-293T cells were starved for the indicated amino acid for 2 hours. Cell lysates were analyzed by immunoblotting for the phosphorylation states and the levels of the indicated proteins. […] SAMTOR-deficient or control HEK-293T cells were treated as indicated for 2 hours prior to processing for immunofluorescence detection of mTOR and the lysosomal marker LAMP2. In all images, insets represent selected fields magnified 3.07× as well as their overlays. Scale bar represents 10 μm. […] SAMTOR-null cells were co-transfected with a cDNA for FLAG-S6K1 along with the indicated HA-tagged cDNAs and cells were treated as in (FIG. 4C) prior to preparing lysates and FLAG-immunoprecipitates. FLAG-immunoprecipitates and cell lysates were analyzed by immunoblotting for the phosphorylation states and the levels of the indicated proteins. […] S2R+ cells were transfected with dsRNAs targeting the indicated mRNAs and starved for 1 hour for the indicated amino acid. Cell lysates were analyzed by immunoblotting for the phosphorylation states and the levels of the indicated proteins. […] MAT2A dox-off HEK-293T cells were treated with 30 ng/mL doxycycline for 50 hours prior to starving them as in (FIG. 4C). Cell lysates were analyzed by immunoblotting for the phosphorylation states and the levels of the indicated proteins.
Cells were rinsed with cold PBS and lysed in lysis buffer (1% Triton, 10 mM β-glycerol phosphate, 10 mM pyrophosphate, 40 mM Hepes pH 7.4, 2.5 mM MgCl2 and 1 tablet of EDTA-free protease inhibitor [Roche] (per 25 ml buffer)). […] Cell lysate samples were prepared by addition of 5× sample buffer (0.242 M Tris, 10% SDS, 25% glycerol, 0.5 M DTT, and bromophenol blue), resolved by 8%-16% SDS-PAGE, and analyzed by immunoblotting.

[1] = target: T1, SAMTOR-GATOR1-KICSTOR interaction in HEK-293T cells (Homo sapiens, UniProt Q1RMZ1); assay: Co-immunoprecipitation of GATOR1 with HA-SAMTOR from methionine-starved and restimulated cells; assay type: cell-based; conditions: HEK-293T starved of methionine 2 hours
T1 construct: expressed in transfected cells; host or cells: HEK-293T cells transiently transfected with HA-SAMTOR in pRK5 (25 ng)
T1 sequence (Q1RMZ1 1-405): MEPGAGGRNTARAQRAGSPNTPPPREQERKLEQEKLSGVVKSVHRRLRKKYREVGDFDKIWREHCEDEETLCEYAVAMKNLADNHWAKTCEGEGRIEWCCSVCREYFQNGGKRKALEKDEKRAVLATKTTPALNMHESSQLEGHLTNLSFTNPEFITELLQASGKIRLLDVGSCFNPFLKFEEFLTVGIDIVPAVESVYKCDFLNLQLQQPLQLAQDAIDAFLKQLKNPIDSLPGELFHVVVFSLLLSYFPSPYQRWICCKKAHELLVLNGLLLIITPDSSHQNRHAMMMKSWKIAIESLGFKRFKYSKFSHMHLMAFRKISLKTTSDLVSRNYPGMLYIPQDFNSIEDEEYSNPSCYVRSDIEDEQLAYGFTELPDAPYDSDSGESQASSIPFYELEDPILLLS
Method: Cell volumes were determined by Coulter counter and used to calculate whole cell concentrations. […] HA-immunoprecipitates and cell lysates were analyzed by immunoblotting for the levels of the indicated proteins. […] Cell lysates were analyzed by immunoblotting for the phosphorylation states and the levels of the indicated proteins. […] Wild-type or SAMTOR-deficient HEK-293T cells were starved for the indicated amino acid for 2 hours. Cell lysates were analyzed by immunoblotting for the phosphorylation states and the levels of the indicated proteins. […] SAMTOR-deficient or control HEK-293T cells were treated as indicated for 2 hours prior to processing for immunofluorescence detection of mTOR and the lysosomal marker LAMP2. […] FLAG-immunoprecipitates and cell lysates were analyzed by immunoblotting for the phosphorylation states and the levels of the indicated proteins. […] Cell lysates were analyzed by immunoblotting for the phosphorylation states and the levels of the indicated proteins. […] Cell lysates were analyzed by immunoblotting for the phosphorylation states and the levels of the indicated proteins.
For anti-FLAG immunoprecipitations, anti-FLAG M2 Affinity Gel (SIGMA A2220) was washed with lysis buffer three times then resuspended to a ratio of 50:50 affinity gel to lysis buffer. […] Denatured samples were resolved by 8%-12% SDS-PAGE, and analyzed by immunoblotting.

[2] = target: T2, SAMTOR-GATOR1-KICSTOR complex (Homo sapiens, UniProt Q1RMZ1); assay: In vitro GATOR1-SAMTOR dissociation assay (immunopurified complex, immunoblotting); assay type: biochemical; conditions: for disruption of the interaction between SAMTOR and GATOR1 (FIG. 3D): 100 μM, added to FLAG-Depdc5 immunoprecipitates; for disruption of the interaction of SAMTOR with GATOR1-KICSTOR: added directly to the immunopurified complex kept at 4° C.
T2 construct: FLAG-immunoprecipitates were prepared from the endogenously FLAG-tagged Depdc5 HEK-293T cells; endogenous in cells; host or cells: HEK-293T cells with endogenously FLAG-tagged Depdc5; anti-FLAG immunoprecipitate on beads
T2 sequence (Q1RMZ1 1-405): T1 sequence (Q1RMZ1 1-405)
Method: HEK-293T cells stably expressing endogenous FLAG-tagged Depdc5 were lysed and subjected to anti-FLAG immunoprecipitations as described above. The GATOR1-SAMTOR complexes immobilized on the FLAG beads were washed twice in lysis buffer with 250 mM NaCl, and then incubated for 25 minutes in 0.3 ml of cytosolic buffer (0.1% Triton, 40 mM HEPES pH7.4, 10 mM NaCl, 150 mM KCl, 2.5 mM MgCl2) with the indicated concentrations of SAM or SAH in the cold. The amount of GATOR1, SAMTOR, GATOR2, and KICSTOR that remained bound was assayed by SDS-PAGE and immunoblotting as described previously.

human FLAG-SAMTOR = target: T3, human FLAG-SAMTOR (Homo sapiens, UniProt Q1RMZ1); assay: Equilibrium [3H]SAM binding assay and competition binding assay with purified FLAG-SAMTOR
T3 construct: made in house; host or cells: HEK-293F suspension cells, transient transfection; anti-FLAG IP, FLAG-peptide elution, size-exclusion chromatography
T3 sequence (Q1RMZ1 1-405): T1 sequence (Q1RMZ1 1-405)
Method: For radiolabelled SAM binding assays using FLAG-tagged wild-type SAMTOR (FIG. 3B), suspension HEK-293F cells were seeded at 2.5 million cells/ml, and the pRK5-FLAG-SAMTOR cDNA was transfected using polyethylenimine. 72-96 hours after transfection, cells were rinsed one time in cold PBS and lysed in 1% Triton lysis buffer (1% Triton, 40 mM Hepes pH 7.4, 2.5 mM MgCl2 and 1 tablet of EDTA-free protease inhibitor [Roche] per 25 ml buffer). Following anti-FLAG immunoprecipitation, the beads were washed 4 times with lysis buffer containing 500 mM NaCl and the protein was eluted in FLAG Elution Buffer (40 mM Hepes pH 7.4, 150 mM NaCl, 2.5 mM MgCl2 and 0.5 mg/ml FLAG peptide) for 1 hour at 4° C. […] Each sample was mixed well and then 15 μl aliquots were separately quantified using a TriCarb scintillation counter (Perkin Elmer). This process was repeated in pairs for each sample, to ensure similar incubation and wash times for all samples analyzed across different experiments. The affinities for SAM and SAH of human FLAG-SAMTOR were determined by first normalizing the bound [^3H]-labeled SAM concentrations across three separate binding assays performed with varying amounts of cold SAM or SAH. […]

[3] = target: T4, human FLAG-SAMTOR (SAMTOR, C7orf60; wild-type, FLAG-tagged, expressed in HEK-293F cells) (Homo sapiens, UniProt Q1RMZ1); assay: Radiolabelled SAM binding assay: competition of unlabeled SAH with [3H]SAM for purified FLAG-SAMTOR (FIG. 3B); conditions: 5 μM [3H]SAM competed with unlabeled SAH; 5 μg purified wild-type FLAG-SAMTOR on anti-FLAG beads, 1 h on ice, pH 7.4; Ki=IC50/(1+([3H]SAM)/Kd)
T4 construct: made in house; host or cells: HEK-293F (suspension), transient transfection of pRK5-FLAG-SAMTOR; anti-FLAG purification and size-exclusion chromatography
T4 sequence (Q1RMZ1 1-405): T1 sequence (Q1RMZ1 1-405)
From the text: FIGS. 3A-3G depict S-adenosylmethionine binds SAMTOR to disrupt its interaction with GATOR1 and KICSTOR. FIG. 3A provides a schematic of the human SAMTOR protein indicating the Class I Rossmann fold methyltransferase domain. Shown is an alignment of partial sequences of this domain from SAMTOR in indicated species. Amino acid positions are colored from white to blue in order of increasing sequence similarity. Orange dots denote the G172 and D190 residues of human SAMTOR. […] FLAG-SAMTOR protein prepared from HEK-293F cells transiently expressing the FLAG-SAMTOR cDNA was further purified by size-exclusion chromatography. The protein was analyzed by SDS-PAGE followed by Coomassie blue staining. Binding assays were performed with purified FLAG-SAMTOR incubated with 5 μM [^3H]SAM and indicated concentrations of unlabeled SAM or SAH. Values for each point are mean±SD of three technical replicates from one representative experiment. The experiment was performed twice. […] FLAG-immunoprecipitates and cell lysates were analyzed by immunoblotting for the levels of the indicated proteins. […] The experiment was performed and analyzed as in (FIG. 3C). […] HA-immunoprecipitates and cell lysates were analyzed as (FIG. 3C). […] FLAG-immunoprecipitates and cell lysates were analyzed by immunoblotting for the phosphorylation states and levels of the indicated proteins. […]

## C[S+](CC[C@H](N)C(=O)[O-])C[C@H]1O[C@@H](n2cnc3c(N)ncnc32)[C@H](O)[C@@H]1O (stereo partly drawn) [SAM, S-adenosylmethionine]
mTORC1
  activation of mTORC1 after loss of MAT2A: largely intact
mTORC1; methionine-starved HEK-293T cells (FIG. 4H)
  mTORC1 signaling after addition to methionine-starved cells: reactivated mTORC1 signaling
[1]; restimulated 20 minutes with 1 mM SAM
  SAMTOR-GATOR1-KICSTOR interaction in cells after re-addition: reduced the interaction to baseline levels
[2]
  disruption of the interaction between SAMTOR and GATOR1 (FIG. 3D): disrupt the interaction
  disruption of the interaction of SAMTOR with GATOR1-KICSTOR: disrupted the interaction
Human FLAG-SAMTOR; 5 μM [3H]SAM with unlabeled SAM, read-out: dissociation constant of SAM for SAMTOR
  Kd: ~7 µM

## Nc1ncnc2c1ncn2[C@@H]1O[C@H](CSCC[C@H](N)C(=O)O)[C@@H](O)[C@H]1O [SAH, S-adenosylhomocysteine]
[3]
  Ki: ~4.6 µM
[2]
  disruption of the interaction between SAMTOR and GATOR1 (FIG. 3D): disrupt the interaction
  disruption of the interaction of SAMTOR with GATOR1-KICSTOR: disrupted the interaction
Human FLAG-SAMTOR; 5 μM [3H]SAM with unlabeled competitor
  binding to SAMTOR in competition binding assay: can also bind

## CSCC[C@H](N)C(=O)O [methionine]
mTORC1
  activation of mTORC1 after loss of MAT2A: greatly attenuated
[1]; restimulated 20 minutes with 100 μM methionine
  SAMTOR-GATOR1-KICSTOR interaction in cells after re-addition: reduced the interaction to baseline levels
